Assay results published in PubChem BioAssay AID248 (DTP/NCI, 2004).
Values joined by “and” are separate entries in the source; they are usually repeats but may differ in a detail not shown here. Identical values can stand only once. Inconclusive results and toxic doses are left out.

System: L1210 leukemia ip in BDF1 mice, survival T/C
Assay: NCI In Vivo Anticancer Drug Screen. Data for tumor model L1210 Leukemia (intraperitoneal) in B6D2F1 (BDF1) mice
Details: higher = longer survival
Method in brief: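 Mice bearing the transplanted tumor received compound or vehicle. Survival of the treated group was divided by that of the vehicle-treated control group to give the ratio.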

[1] = endpoint: mean survival time, dose: 100.0 mg/kg/injection, schedule: Q01DX009 (ip), vehicle: saline

N=c1ccn2c(n1)OC1C(OP(=O)(O)O)C(CO)OC12 (configuration not stated)
T/C (endpoint: mean survival time, dose: 5.0 mg/kg/injection, schedule: Q01DX009 (ip), vehicle: saline): 115 % of control | T/C (endpoint: mean survival time, dose: 25.0 mg/kg/injection, schedule: Q01DX009 (oral), vehicle: saline): 172 % of control | T/C (endpoint: mean survival time, dose: 40.0 mg/kg/injection, schedule: Q01DX009 (ip), vehicle: saline): 152 % of control | T/C (endpoint: mean survival time, dose: 50.0 mg/kg/injection, schedule: Q01DX009 (oral), vehicle: saline): 167 % of control | T/C (endpoint: mean survival time, dose: 80.0 mg/kg/injection, schedule: Q01DX009 (ip), vehicle: saline): 175 % of control | T/C (endpoint: mean survival time, dose: 100.0 mg/kg/injection, schedule: Q01DX005 (ip), vehicle: saline): 152 % of control and 160 % of control | T/C [1]: 184 % of control and 185 % of control | T/C (endpoint: mean survival time, dose: 100.0 mg/kg/injection, schedule: Q01DX009 (oral), vehicle: saline): 190 % of control | T/C (endpoint: mean survival time, dose: 160.0 mg/kg/injection, schedule: Q01DX009 (ip), vehicle: saline): 164 % of control | T/C (endpoint: mean survival time, dose: 200.0 mg/kg/injection, schedule: Q01DX005 (ip), vehicle: saline): 168 % of control and 178 % of control | T/C (endpoint: mean survival time, dose: 200.0 mg/kg/injection, schedule: Q01DX009 (ip), vehicle: saline): 163 % of control and 195 % of control | T/C (endpoint: mean survival time, dose: 200.0 mg/kg/injection, schedule: Q01DX009 (oral), vehicle: saline): 201 % of control | T/C (endpoint: mean survival time, dose: 400.0 mg/kg/injection, schedule: Q01DX009 (ip), vehicle: saline): 192 % of control and 212 % of control | T/C (endpoint: mean survival time, dose: 400.0 mg/kg/injection, schedule: Q01DX009 (oral), vehicle: saline): 245 % of control | T/C (endpoint: mean survival time, dose: 800.0 mg/kg/injection, schedule: Q01DX009 (oral), vehicle: saline): 260 % of control | T/C (endpoint: median survival time, dose: 12.5 mg/kg/injection, schedule: Q01DX009 (oral), vehicle: saline): 109 % of control | T/C (endpoint: median survival time, dose: 12.5 mg/kg/injection, schedule: Q03HX008 (oral), vehicle: water): 111 % of control | T/C (endpoint: median survival time, dose: 25.0 mg/kg/injection, schedule: Q01DX009 (oral), vehicle: saline): 109 % of control | T/C (endpoint: median survival time, dose: 25.0 mg/kg/injection, schedule: Q03HX008 (oral), vehicle: water): 111 % of control | T/C (endpoint: median survival time, dose: 25.0 mg/kg/injection, schedule: Q03HX024 (oral), vehicle: water): 172 % of control | T/C (endpoint: median survival time, dose: 50.0 mg/kg/injection, schedule: Q01DX009 (oral), vehicle: saline): 109 % of control | T/C (endpoint: median survival time, dose: 50.0 mg/kg/injection, schedule: Q01DX009 (oral), vehicle: water): 150 % of control | T/C (endpoint: median survival time, dose: 50.0 mg/kg/injection, schedule: Q03HX024 (oral), vehicle: water): 188 % of control | T/C (endpoint: median survival time, dose: 100.0 mg/kg/injection, schedule: Q01DX009 (oral), vehicle: water): 166 % of control | T/C (endpoint: median survival time, dose: 100.0 mg/kg/injection, schedule: Q03HX024 (oral), vehicle: water): 194 % of control | T/C (endpoint: median survival time, dose: 200.0 mg/kg/injection, schedule: Q01DX001 (oral), vehicle: saline): 100 % of control | T/C (endpoint: median survival time, dose: 200.0 mg/kg/injection, schedule: Q01DX001 (oral), vehicle: water): 116 % of control | T/C (endpoint: median survival time, dose: 200.0 mg/kg/injection, schedule: Q01DX009 (oral), vehicle: water): 188 % of control | T/C (endpoint: median survival time, dose: 200.0 mg/kg/injection, schedule: Q03HX008 (oral), vehicle: water): 161 % of control | T/C (endpoint: median survival time, dose: 200.0 mg/kg/injection, schedule: Q03HX024 (oral), vehicle: water): 200 % of control | T/C (endpoint: median survival time, dose: 400.0 mg/kg/injection, schedule: Q01DX001 (oral), vehicle: saline): 90 % of control | T/C (endpoint: median survival time, dose: 400.0 mg/kg/injection, schedule: Q01DX001 (oral), vehicle: water): 122 % of control | T/C (endpoint: median survival time, dose: 400.0 mg/kg/injection, schedule: Q01DX009 (oral), vehicle: saline): 177 % of control | T/C (endpoint: median survival time, dose: 400.0 mg/kg/injection, schedule: Q01DX009 (oral), vehicle: water): 211 % of control | T/C (endpoint: median survival time, dose: 400.0 mg/kg/injection, schedule: Q03HX008 (oral), vehicle: water): 111 % of control | T/C (endpoint: median survival time, dose: 400.0 mg/kg/injection, schedule: Q03HX024 (oral), vehicle: water): 94 % of control | T/C (endpoint: median survival time, dose: 400.0 mg/kg/injection, schedule: Q04DX003 (oral), vehicle: water): 155 % of control | T/C (endpoint: median survival time, dose: 800.0 mg/kg/injection, schedule: Q01DX009 (oral), vehicle: saline): 200 % of control | T/C (endpoint: median survival time, dose: 800.0 mg/kg/injection, schedule: Q04DX003 (oral), vehicle: water): 177 % of control | T/C (endpoint: median survival time, dose: 1600.0 mg/kg/injection, schedule: Q01DX001 (oral), vehicle: saline): 154 % of control | T/C (endpoint: median survival time, dose: 1600.0 mg/kg/injection, schedule: Q04DX003 (oral), vehicle: water): 188 % of control | T/C (endpoint: median survival time, dose: 3200.0 mg/kg/injection, schedule: Q01DX001 (oral), vehicle: saline): 168 % of control | T/C (endpoint: median survival time, dose: 3200.0 mg/kg/injection, schedule: Q04DX003 (oral), vehicle: water): 166 % of control

CCN(CC)CCN1C(=O)c2cccc3cccc(c23)C1=O
T/C (endpoint: mean survival time, dose: 10.5 mg/kg/injection, schedule: Q03HX024 (ip), vehicle: saline): 102 % of control | T/C (endpoint: mean survival time, dose: 15.7 mg/kg/injection, schedule: Q03HX024 (ip), vehicle: saline): 98 % of control | T/C (endpoint: mean survival time, dose: 23.4 mg/kg/injection, schedule: Q03HX024 (ip), vehicle: saline): 99 % of control | T/C (endpoint: mean survival time, dose: 34.8 mg/kg/injection, schedule: Q03HX024 (ip), vehicle: saline): 111 % of control | T/C (endpoint: mean survival time, dose: 52.0 mg/kg/injection, schedule: Q03HX024 (ip), vehicle: saline): 165 % of control | T/C (endpoint: mean survival time, dose: 96.0 mg/kg/injection, schedule: Q01DX009 (ip), vehicle: saline): 111 % of control | T/C (endpoint: mean survival time, dose: 96.0 mg/kg/injection, schedule: Q03HX024 (ip), vehicle: saline): 96 % of control | T/C (endpoint: mean survival time, dose: 105.0 mg/kg/injection, schedule: Q01DX001 (ip), vehicle: saline): 103 % of control | T/C (endpoint: mean survival time, dose: 105.0 mg/kg/injection, schedule: Q04DX003 (ip), vehicle: saline): 100 % of control | T/C (endpoint: mean survival time, dose: 157.0 mg/kg/injection, schedule: Q01DX001 (ip), vehicle: saline): 100 % of control | T/C (endpoint: mean survival time, dose: 157.0 mg/kg/injection, schedule: Q04DX003 (ip), vehicle: saline): 110 % of control

O=S(=O)(Cl)c1ccc2cc3ccccc3cc2c1
T/C (endpoint: mean survival time, dose: 50.0 mg/kg/injection, schedule: Q01DX009 (ip), vehicle: saline with Tween-80): 98 % of control | T/C (endpoint: mean survival time, dose: 100.0 mg/kg/injection, schedule: Q01DX009 (ip), vehicle: saline with Tween-80): 96 % of control | T/C (endpoint: mean survival time, dose: 200.0 mg/kg/injection, schedule: Q01DX009 (ip), vehicle: saline with Tween-80): 102 % of control

COC(=O)NS(=O)(=O)C1=Cc2cccc3cccc1c23
T/C (endpoint: mean survival time, dose: 100.0 mg/kg/injection, schedule: Q04DX002 (ip), vehicle: Klucel (hydroxypropylcellulose) (HPC)): 103 % of control | T/C (endpoint: mean survival time, dose: 200.0 mg/kg/injection, schedule: Q04DX002 (ip), vehicle: Klucel (hydroxypropylcellulose) (HPC)): 100 % of control | T/C (endpoint: mean survival time, dose: 400.0 mg/kg/injection, schedule: Q04DX002 (ip), vehicle: Klucel (hydroxypropylcellulose) (HPC)): 113 % of control

CC(Cc1ccccc1)N(C)C (configuration not stated)
T/C (endpoint: mean survival time, dose: 12.5 mg/kg/injection, schedule: Q01DX001 (ip), vehicle: saline): 102 % of control | T/C (endpoint: mean survival time, dose: 25.0 mg/kg/injection, schedule: Q01DX001 (ip), vehicle: saline): 94 % of control | T/C (endpoint: mean survival time, dose: 25.0 mg/kg/injection, schedule: Q04DX003 (ip), vehicle: saline): 101 % of control | T/C (endpoint: mean survival time, dose: 50.0 mg/kg/injection, schedule: Q01DX001 (ip), vehicle: saline): 94 % of control | T/C (endpoint: mean survival time, dose: 50.0 mg/kg/injection, schedule: Q04DX003 (ip), vehicle: saline): 101 % of control

Cc1cc(OS(=O)(=O)/C=C/c2ccccc2)c(C(C)C)cc1Cl
T/C (endpoint: mean survival time, dose: 100.0 mg/kg/injection, schedule: Q01DX001 (ip), vehicle: acetone): 93 % of control | T/C (endpoint: mean survival time, dose: 100.0 mg/kg/injection, schedule: Q01DX009 (ip), vehicle: acetone): 100 % of control | T/C (endpoint: mean survival time, dose: 200.0 mg/kg/injection, schedule: Q01DX001 (ip), vehicle: acetone): 98 % of control | T/C (endpoint: mean survival time, dose: 200.0 mg/kg/injection, schedule: Q01DX009 (ip), vehicle: acetone): 98 % of control | T/C (endpoint: mean survival time, dose: 400.0 mg/kg/injection, schedule: Q01DX001 (ip), vehicle: acetone): 98 % of control | T/C (endpoint: mean survival time, dose: 400.0 mg/kg/injection, schedule: Q01DX009 (ip), vehicle: acetone): 95 % of control

Cc1ccc(S(=O)(=O)OC2CCC(N3C(=O)c4ccccc4C3=O)CC2)cc1 (configuration not stated)
T/C (endpoint: mean survival time, dose: 100.0 mg/kg/injection, schedule: Q01DX001 (ip), vehicle: saline with Tween-80): 100 % of control | T/C (endpoint: mean survival time, dose: 200.0 mg/kg/injection, schedule: Q01DX001 (ip), vehicle: saline with Tween-80): 102 % of control | T/C (endpoint: mean survival time, dose: 400.0 mg/kg/injection, schedule: Q01DX001 (ip), vehicle: saline with Tween-80): 98 % of control

N=C(N)SCCCSC(=N)N
T/C (endpoint: mean survival time, dose: 25.0 mg/kg/injection, schedule: Q04DX003 (ip), vehicle: Klucel (hydroxypropylcellulose) (HPC)): 95 % of control | T/C (endpoint: mean survival time, dose: 50.0 mg/kg/injection, schedule: Q04DX003 (ip), vehicle: Klucel (hydroxypropylcellulose) (HPC)): 97 % of control | T/C [1]: 102 % of control | T/C (endpoint: mean survival time, dose: 100.0 mg/kg/injection, schedule: Q04DX003 (ip), vehicle: Klucel (hydroxypropylcellulose) (HPC)): 97 % of control and 98 % of control

CC(C)(C)CC(C)(C)c1ccc(OCCO)cc1
T/C (endpoint: mean survival time, dose: 50.0 mg/kg/injection, schedule: Q01DX009 (ip), vehicle: saline): 97 % of control | T/C [1]: 91 % of control | T/C (endpoint: mean survival time, dose: 100.0 mg/kg/injection, schedule: Q04DX003 (ip), vehicle: saline): 107 % of control | T/C (endpoint: mean survival time, dose: 200.0 mg/kg/injection, schedule: Q04DX003 (ip), vehicle: saline): 101 % of control
